Reference: US20250235455A1, “AQUEOUS TICAGRELOR SOLUTIONS, METHOD OF MANUFACTURING AND USES” (HYLORIS DEVELOPMENTS SA, priority 2022, published 2025)
In brackets after ≈: the same amount, converted by molar mass. Where two headings read alike, the source gives them in different places. Marks after values point to notes of the source that are not given here.

Legend:
Format in all cases: physicochemical
[1] = Impact of buffer strength on pH, osmolality, assay and impurities
Experimental: In addition, a screening was conducted on the impact of buffer strength on pH and osmolality.

[2] = Solubility of ticagrelor in HPβCD (appearance on shaking platform)
Experimental: In a first example two different types of cyclodextrin were used and compared for the solubilization of ticagrelor. An unbuffered stock solution of HPβCD or SBECD was made in water at the target concentrations of 20 w/w %, 25 w/w %, 30 w/w %, 35 w/w % and 40 w/w %. Ticagrelor was added slowly under vortex. Ticagrelor was used at concentrations of 5, 10 or 14 mg/ml in milli Q water. The ticagrelor-cyclodextrin solutions were left on a shaking platform. No sonification or heat was applied.

[3] = Maximum solubility of ticagrelor in HPβCD solution without heat; settings: aqueous with cosolvent or surfactant or cyclodextrin, read-out: Ticagrelor mg/ml (maximum solubility)
From the text: In a further example, the maximum solubility of ticagrelor in an HPβCD solution, without the use of heat, was investigated.

[4] = Phosphate buffer pH 7.5 strength 0.19 mM
[5] = Phosphate buffer pH 7.5 strength 5 mM
[6] = Phosphate buffer pH 7.5 strength 10 mM
[7] = Phosphate buffer pH 7.5 strength 19 mM
[8] = HPβCD 20% w/w, ticagrelor 5 mg/ml
[9] = HPβCD 20% w/w, ticagrelor 10 mg/ml
[10] = HPβCD 20% w/w, ticagrelor 14 mg/ml
[11] = HPβCD 25% w/w, ticagrelor 5 mg/ml
[12] = HPβCD 25% w/w, ticagrelor 10 mg/ml
[13] = HPβCD 25% w/w, ticagrelor 14 mg/ml
[14] = HPβCD 30% w/w, ticagrelor 5 mg/ml
[15] = HPβCD 30% w/w, ticagrelor 10 mg/ml
[16] = HPβCD 30% w/w, ticagrelor 14 mg/ml
[17] = HPβCD 35% w/w, ticagrelor 5 mg/ml
[18] = HPβCD 35% w/w, ticagrelor 10 mg/ml
[19] = HPβCD 35% w/w, ticagrelor 14 mg/ml
[20] = HPβCD 40% w/w, ticagrelor 5 mg/ml
[21] = HPβCD 40% w/w, ticagrelor 10 mg/ml
[22] = HPβCD 40% w/w, ticagrelor 14 mg/ml

CCCSc1nc(N[C@@H]2C[C@H]2c2ccc(F)c(F)c2)c2nnn([C@@H]3C[C@H](OCCO)[C@@H](O)[C@H]3O)c2n1 [Ticagrelor, (1S,2S,3R,5S)-3-{7-[(1R,2S)-2-(3,4-difluorophenyl)cyclopropylamino]5-(propylthio)-3H-(1,2,3)triazolo (4,5-D)pyrimidin-3-yl}-5-(2 hydroxyethoxy)cyclopentane-1,2-diol]
Osmolality sample ([1]; Phosphate buffer pH 7.5): 809 mOsm/kg
Assay [1, 4]: 102.23%
Total Impurities [1, 4]: 0.42%
pH sample [1, 4]: 7.18
Assay [1, 5]: 100.49%
Osmolality sample [1, 5]: 703 mOsm/kg
Total Impurities [1, 5]: 0.40%
pH sample [1, 5]: 7.66
Assay [1, 6]: 102.98%
Osmolality sample [1, 6]: 724 mOsm/kg
Total Impurities [1, 6]: 0.42%
pH sample [1, 6]: 7.69
Assay [1, 7]: 102.58%
Osmolality sample [1, 7]: 758 mOsm/kg
Total Impurities [1, 7]: 0.42%
pH sample [1, 7]: 7.70
Appearance ([2]; 5 mg/ml ticagrelor with 25, 30, 35 and 40 w/w % HPβCD): Clear
Appearance on standing ([2]; 5 mg/ml, HPβCD 40%, 35% or 30% w/w in milliQ water, at least three days at room temperature and several days at 4° C.): remained clear
Appearance After 5 min of shaking [2, 8]: − (translucent solution with precipitation)
Appearance After 30 min of shaking [2, 8]: +/−
Appearance After 60 min of shaking [2, 8]: +/−
Appearance After 3 h of shaking [2, 8]: +/−
Appearance After overnight shaking [2, 8]: − (translucent solution with precipitation)
Appearance After 5 min of shaking [2, 9]: − (translucent solution with precipitation)
Appearance After 30 min of shaking [2, 9]: − (translucent solution with precipitation)
Appearance After 60 min of shaking [2, 9]: − (translucent solution with precipitation)
Appearance After 3 h of shaking [2, 9]: − (translucent solution with precipitation)
Appearance After overnight shaking [2, 9]: − (translucent solution with precipitation)
Appearance After 5 min of shaking [2, 10]: − (translucent solution with precipitation)
Appearance After 30 min of shaking [2, 10]: − (translucent solution with precipitation)
Appearance After 60 min of shaking [2, 10]: − (translucent solution with precipitation)
Appearance After 3 h of shaking [2, 10]: − (translucent solution with precipitation)
Appearance After overnight shaking [2, 10]: − (translucent solution with precipitation)
Appearance After 5 min of shaking [2, 11]: − (translucent solution with precipitation)
Appearance After 30 min of shaking [2, 11]: +/−
Appearance After 60 min of shaking [2, 11]: +/−
Appearance After 3 h of shaking [2, 11]: +/−
Appearance After overnight shaking ([2]; HPβCD 25% w/w, ticagrelor 5 mg/ml, after one hour of sonication): +* (clear, appeared completely dissolved)
Appearance After 5 min of shaking [2, 12]: − (translucent solution with precipitation)
Appearance After 30 min of shaking [2, 12]: − (translucent solution with precipitation)
Appearance After 60 min of shaking [2, 12]: − (translucent solution with precipitation)
Appearance After 3 h of shaking [2, 12]: − (translucent solution with precipitation)
Appearance After overnight shaking [2, 12]: − (translucent solution with precipitation)
Appearance After 5 min of shaking [2, 13]: − (translucent solution with precipitation)
Appearance After 30 min of shaking [2, 13]: − (translucent solution with precipitation)
Appearance After 60 min of shaking [2, 13]: − (translucent solution with precipitation)
Appearance After 3 h of shaking [2, 13]: − (translucent solution with precipitation)
Appearance After overnight shaking [2, 13]: − (translucent solution with precipitation)
Appearance After 5 min of shaking [2, 14]: − (translucent solution with precipitation)
Appearance After 30 min of shaking [2, 14]: +/−
Appearance After 60 min of shaking [2, 14]: +/−
Appearance After 3 h of shaking [2, 14]: +/−
Appearance After overnight shaking [2, 14]: + (clear, appeared completely dissolved)
Appearance After 5 min of shaking [2, 15]: − (translucent solution with precipitation)
Appearance After 30 min of shaking [2, 15]: − (translucent solution with precipitation)
Appearance After 60 min of shaking [2, 15]: − (translucent solution with precipitation)
Appearance After 3 h of shaking [2, 15]: − (translucent solution with precipitation)
Appearance After overnight shaking [2, 15]: − (translucent solution with precipitation)
Appearance After 5 min of shaking [2, 16]: − (translucent solution with precipitation)
Appearance After 30 min of shaking [2, 16]: − (translucent solution with precipitation)
Appearance After 60 min of shaking [2, 16]: − (translucent solution with precipitation)
Appearance After 3 h of shaking [2, 16]: − (translucent solution with precipitation)
Appearance After overnight shaking [2, 16]: − (translucent solution with precipitation)
Appearance After 5 min of shaking [2, 17]: +/−
Appearance After 30 min of shaking [2, 17]: +/−
Appearance After 60 min of shaking [2, 17]: +/−
Appearance After 3 h of shaking [2, 17]: +/−
Appearance After overnight shaking [2, 17]: + (clear, appeared completely dissolved)
Appearance After 5 min of shaking [2, 18]: − (translucent solution with precipitation)
Appearance After 30 min of shaking [2, 18]: +/−
Appearance After 60 min of shaking [2, 18]: +/−
Appearance After 3 h of shaking [2, 18]: +/−
Appearance After overnight shaking [2, 18]: + (clear, appeared completely dissolved)
Appearance After 5 min of shaking [2, 19]: − (translucent solution with precipitation)
Appearance After 30 min of shaking [2, 19]: +/−
Appearance After 60 min of shaking [2, 19]: +/−
Appearance After 3 h of shaking [2, 19]: +/−
Appearance After overnight shaking [2, 19]: +/−
Appearance After 5 min of shaking [2, 20]: + (clear, appeared completely dissolved)
Appearance After 30 min of shaking [2, 20]: + (clear, appeared completely dissolved)
Appearance After 60 min of shaking [2, 20]: + (clear, appeared completely dissolved)
Appearance After 3 h of shaking [2, 20]: + (clear, appeared completely dissolved)
Appearance After overnight shaking [2, 20]: + (clear, appeared completely dissolved)
Appearance After 5 min of shaking [2, 21]: − (translucent solution with precipitation)
Appearance After 30 min of shaking [2, 21]: +/−
Appearance After 60 min of shaking [2, 21]: +/−
Appearance After 3 h of shaking [2, 21]: +/−
Appearance After overnight shaking [2, 21]: + (clear, appeared completely dissolved)
Appearance After 5 min of shaking [2, 22]: − (translucent solution with precipitation)
Appearance After 30 min of shaking [2, 22]: +/−
Appearance After 60 min of shaking [2, 22]: +/−
Appearance After 3 h of shaking [2, 22]: +/−
solubility ([3]; HPβCD solution 17% w/w, HPβCD 17% w/W): 4 mg/mL (≈ 7.65 mM)
solubility ([3]; HPβCD solution 22.5% w/w, HPβCD 22.5% w/W): 5 mg/mL (≈ 9.57 mM)
solubility ([3]; HPβCD solution 30% w/w, HPβCD 30% w/W): 8 mg/mL (≈ 15.3 mM)
solubility ([3]; HPβCD solution 33% w/w, HPβCD 33% w/W): 9 mg/mL (≈ 17.2 mM)
solubility ([3]; HPβCD solution 40% w/w, HPβCD 40% w/W): 13 mg/mL (≈ 24.9 mM)
